One data set has as its target T1, human RXFP1 (Homo sapiens, UniProt Q9HBX9).
T1 sequence (Q9HBX9 1-757): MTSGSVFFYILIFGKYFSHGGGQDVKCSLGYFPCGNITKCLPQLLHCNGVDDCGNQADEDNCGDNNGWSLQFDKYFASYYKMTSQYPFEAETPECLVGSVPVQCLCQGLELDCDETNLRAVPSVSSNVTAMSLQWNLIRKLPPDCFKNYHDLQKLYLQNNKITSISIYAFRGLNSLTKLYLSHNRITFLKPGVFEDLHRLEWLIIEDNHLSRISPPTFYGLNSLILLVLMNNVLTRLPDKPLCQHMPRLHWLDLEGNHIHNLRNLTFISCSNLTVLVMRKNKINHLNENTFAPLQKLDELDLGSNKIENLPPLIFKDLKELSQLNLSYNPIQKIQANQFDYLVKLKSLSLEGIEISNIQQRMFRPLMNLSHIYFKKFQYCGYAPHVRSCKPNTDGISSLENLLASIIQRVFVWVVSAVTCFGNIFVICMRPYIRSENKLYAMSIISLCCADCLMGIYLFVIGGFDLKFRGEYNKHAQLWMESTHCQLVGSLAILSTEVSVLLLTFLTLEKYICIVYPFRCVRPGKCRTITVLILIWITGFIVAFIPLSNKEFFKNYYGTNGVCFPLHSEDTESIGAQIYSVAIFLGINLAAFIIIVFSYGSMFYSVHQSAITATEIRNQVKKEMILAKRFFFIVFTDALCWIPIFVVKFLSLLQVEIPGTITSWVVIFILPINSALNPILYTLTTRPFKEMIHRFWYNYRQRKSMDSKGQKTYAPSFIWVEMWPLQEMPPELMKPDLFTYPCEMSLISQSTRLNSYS
Kind of data set: RXFP1 Hu cAMP (Test A). The format is cell-based. As to conditions: RXFP1 Hu cAMP; for EC50: read-out: Test A EC50. Details: expressed in transfected cells; host or cells: Jump-In T-REx CHO-K1 cells (ThermoFisher), induced with 10 ng/ml doxycycline for 24 h. Summed up:
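Doxycycline-induced (10 ng/ml, 24 h) CHO-K1 cells stably expressing human RXFP1; cAMP read by competitive HTRF after 2 h at room temperature, with 0.5 mM IBMX final.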

The nature of data set [1]: Rat Hepatocyte Stability (Test E). As to conditions: geometric mean if run multiple times; for hepatocyte CLint: rat, hepatocytes. The format is in vitro ADME. Put shortly: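 Run per the published AstraZeneca-type rat hepatocyte stability protocol (Wernevik et al. panel). Values are mean intrinsic clearance, Clint in μl/min/10^6 cells; geometric mean used for repeated runs.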

A further data set is described as follows: Solubility (Test F). The data set is classed as physicochemical. As to conditions: arithmetic mean if run multiple times. The method, then:
The assay was conducted according to the Solubility Assay described in pages 164-167 of Wernevik, J. et al., “A Fully Integrated Assay Panel for Early Drug Metabolism and Pharmacokinetics Profiling”, Assay and Drug Development Technologies, 2020, 18(4), 157-179. Data are reported in Table 36 as solubility ([…]. Where the assay was run multiple times for the same compound, the arithmetic mean is reported.

The nature of data set [2]: Human Liver Microsomal Stability (Test C). The format is in vitro ADME. As to conditions: for microsomal CLint: human, liver microsomes. Summed up: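 Human liver microsome incubation per the Wernevik et al. integrated DMPK panel protocol. Intrinsic clearance reported as CLint in μl/min/mg protein, averaged arithmetically over repeat runs.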
Data set [3] can be described thus: Human Hepatocyte Stability (Test D). The format is in vitro ADME. As to conditions: geometric mean if run multiple times; for hepatocyte CLint at 1 µM: human, cryopreserved pooled human hepatocytes (LiverPool 10-Donor). The method, then: Human Hepatocyte Stability (Test D)
The metabolic stability of compounds in human hepatocytes was assessed using the following protocol:
1. Prepare 10 mM stock solutions of compound and control compounds in appropriate solvent (DMSO). Place incubation medium (L-15 Medium) in a 37° C. water bath, and allow warming for at least 15 minutes prior to use.
2. Add 80 μL of acetonitrile to each well of the 96-well deep well plate (“Quenching plate”).
3. In a new 96-well plate, dilute the 10 mM test compounds and the control compounds to 100 μM by combining 198 μL of acetonitrile and 2 μL of 10 mM stock solution.
4. Remove a vial of cryopreserved (less than −150° C.) human hepatocytes (LiverPool™ 10-Donor Human hepatocytes obtained from Bioreclamation IVT (Product No. S01205)) from storage, ensuring that vials remain at cryogenic temperatures until thawing process ensues. As quickly as possible, thaw the cells by placing the vial in a 37° C. water bath and gently shaking the vials. Vials should remain in water bath until all ice crystals have dissolved and are no longer visible. After thawing is complete, spray vial with 70% ethanol, transfer the vial to a bio-safety cabinet.
5. Open the vial and pour the contents into the 50 mL conical tube containing thawing medium. Place the 50 mL conical tube into a centrifuge and spin at 100 g for 10 minutes (room temperature).
6. Using Cellometer® Vision, count cells and determine the viable cell density. Cells with poor viability (<80% viability) are not acceptable for use.
7. Transfer 247.5 μL of hepatocytes into each well of a 96-well cell incubation plate. Place the plate on Eppendorf Thermomixer Comfort plate shaker to allow the hepatocytes to warm for 10 minutes.
8. Add 2.5 μL of 100 μM test compound or control compounds into an incubation well containing cells to initiate the reaction.
9. Incubate the plate at 37° C. and 900 rpm on an Eppendorf Thermomixer Comfort plate shaker.
10. Centrifuge the quenching plates for 20 minutes at 4,000 rpm. Transfer 30 μL of supernatant of each compound into a 96-well analysis plate. 4 compounds are pooled together into one cassette. Then dilute the pooled sample by adding of 180 μl of pure water. All incubations are performed in singlicate.
All calculations were carried out using Microsoft Excel. Peak areas were determined from extracted ion chromatograms. In vitro intrinsic clearance (in vitro Clint, in μL/min/10^6 cells) of parent compound was determined by regression analysis of the Ln percent parent disappearance vs. time curve. The in vitro intrinsic clearance (in vitro Clint, in μL/min/10^6 cells) reported in Table 36, and was determined from the slope value using the following equation: in vitro Clint=kV/N
V=incubation volume (0.25 mL);
N=number of hepatocytes per well (0.25×10^6 cells)
Where the assay was run multiple times for the same compound, the geometric mean is reported.

In brackets after ≈: the same amount, converted by molar mass.

Usually hepatocyte CLint stands for the rate of metabolic loss divided by the concentration. Low readings indicate greater metabolic stability, high ones faster metabolism. For orientation: solubility means how much of the substance goes into solution per volume. A high value points to much dissolved substance. In general, microsomal CLint refers to the capacity of the preparation to metabolise the compound, expressed as a volume cleared per time. Read a high microsomal CLint as rapid turnover. As usually defined, the EC50 is the concentration that produces a half-maximal response.

For the molecule `COc1cc(F)c(O[C@H]2CC[C@@](C)(C(=O)O)CC2)cc1C(=O)NC1C(C(=O)Nc2cccc(S(=O)(=O)C(F)(F)F)c2)CC2OCOC21` (single isomer, unassigned) [Example 512, (1R,4s)-4-(2-Fluoro-4-methoxy-5-(((3aR*,4S*,5S*,6aS*)-5-((3-((trifluoromethyl)sulfonyl)phenyl)carbamoyl)tetrahydro-4H-cyclopenta[d][1,3]dioxol-4-yl)carbamoyl)phenoxy)-1-methylcyclohexane-1-carboxylic acid], at human RXFP1, the “Test A Sinf” value is reported as 104%. The hepatocyte CLint in data set [1] was 25 µL/min/1e6 cells. Also, the solubility in the data set “Solubility (Test F)” came out at 880 µM (≈ 606 µg/mL). The molecule also had a microsomal CLint in data set [2] of 12 µL/min/mg. In addition, the hepatocyte CLint at 1 µM in data set [3] was determined as 4.2 µL/min/1e6 cells.
Consider `COc1cc(F)c(-c2ccc(CCC(=O)O)cn2)cc1C(=O)N[C@@H]1[C@H]2CC[C@H](C2)[C@@H]1C(=O)Nc1cccc(S(=O)(=O)C(F)(F)F)c1` [Example 242], for which, on human RXFP1, the “Test A Sinf” value is listed as 109% and the EC50 worked out at 200 nM. This molecule also returned a hepatocyte CLint in data set [1] of 30 µL/min/1e6 cells. The molecule also displayed a solubility in the data set “Solubility (Test F)” of 900 µM (≈ 597 µg/mL). The microsomal CLint in data set [2] worked out at 110 µL/min/mg. This molecule registered a hepatocyte CLint at 1 µM in data set [3] of 26 µL/min/1e6 cells.
With `CCC(C)CNC(=O)C1C2CCC(C2)C1NC(=O)c1cc(OC2CCC(C(=O)O)CC2)c(F)cc1OC` (single isomer, unassigned) [Example 202, (1S,4s)-4-(2-Fluoro-4-methoxy-5-(((1S,2R,3S,4R)-3-(((R*)-2-methylbutyl)carbamoyl)bicyclo[2.2.1]heptan-2-yl)carbamoyl)phenoxy)cyclohexane-1-carboxylic acid], on human RXFP1, the “Test A Sinf” value is listed as 102%. Further, the hepatocyte CLint in data set [1] was 57 µL/min/1e6 cells. The same molecule returned a solubility in “Solubility (Test F)” of 890 µM (≈ 462 µg/mL). This molecule had a microsomal CLint in data set [2] of 14 µL/min/mg. This molecule returned a hepatocyte CLint at 1 µM in data set [3] of 5.6 µL/min/1e6 cells.
On to `COc1cc(F)c(O[C@H]2CC[C@@H](C(=O)O)CC2)cc1C(=O)N[C@@H]1[C@H]2CC[C@H](C2)[C@@H]1C(=O)NCC1(C)CC1` [Example 198], for which, on human RXFP1, the “Test A Sinf” value is recorded as 99% and the EC50 came to 1200 nM. The molecule further registered a hepatocyte CLint in data set [1] of 77 µL/min/1e6 cells. The molecule also displayed a solubility in “Solubility (Test F)” of 920 µM (≈ 475 µg/mL). In data set [2], this molecule registered a microsomal CLint of 12 µL/min/mg. The hepatocyte CLint at 1 µM in data set [3] is 6.6 µL/min/1e6 cells.
`CCC(C)CNC(=O)C1C2CCC(C2)C1NC(=O)c1cc(OC2CCC(C(=O)O)CC2)c(F)cc1OC` (single isomer, unassigned) [Example 203, (1S,4s)-4-(2-Fluoro-4-methoxy-5-(((1S,2R,3S,4R)-3-(((R*)-2-methylbutyl)carbamoyl)bicyclo[2.2.1]heptan-2-yl)carbamoyl)phenoxy)cyclohexane-1-carboxylic acid]: the “Test A Sinf” value at human RXFP1 is given as 118%. The “Test E Rat Hepatocyte Stability Clint” value in data set [1] (rat hepatocytes) was found to be 34 μL/min/10^6 cells. Moreover, in the data set “Solubility (Test F)”, the solubility was 1000 µM (≈ 519 µg/mL). The “Test C Human Liver Microsomal Stability Clint” value in data set [2] (human liver microsomes) came to 19 µL/min/mg. Also, in data set [3] (human hepatocytes), the “Test D Human Hepatocyte Stability Clint” value was 5 μL/min/10^6 cells.
In the case of `COc1cc(F)c(O[C@H]2CC[C@@](C)(C(=O)O)CC2)cc1C(=O)N[C@@H]1CCC[C@@H]1C(=O)NCC1(C)CCC1` [Example 67], at human RXFP1, the “Test A Sinf” value is given as 105% and the EC50 amounted to 270 nM. Besides, in data set [1], the hepatocyte CLint came to 18 µL/min/1e6 cells. Moreover, in the data set “Solubility (Test F)”, the solubility was > 1000 µM. For the same molecule, in data set [2], the microsomal CLint is < 3 µL/min/mg. Also, in data set [3], the hepatocyte CLint at 1 µM came out at 2.6 µL/min/1e6 cells.
Take `CCC(CC)CNC(=O)[C@H]1[C@@H]2CC[C@@H](C2)[C@H]1NC(=O)c1cc(O[C@H]2CC[C@@H](C(=O)O)CC2)c(F)cc1OC` [Example 197, (1S,4s)-4-(5-(((1S,2R,3S,4R)-3-((2-ethylbutyl)carbamoyl)bicyclo[2.2.1]heptan-2-yl)carbamoyl)-2-fluoro-4-methoxyphenoxy)cyclohexane-1-carboxylic acid]: on human RXFP1, the “Test A Sinf” value came out at 106% and the EC50 was determined as 1400 nM. Also, in data set [1], the hepatocyte CLint came to 28 µL/min/1e6 cells. The same molecule had a solubility in “Solubility (Test F)” of 1000 µM (≈ 533 µg/mL). The same molecule came in with a microsomal CLint in data set [2] of 45 µL/min/mg. In addition, in data set [3], the intrinsic clearance (hepatocyte CLint) at 1 µM turned out to be 12 µL/min/1e6 cells.
For the molecule `COc1cc(F)c(-c2cnc(CCC(=O)O)cn2)cc1C(=O)N[C@@H]1[C@H]2CC[C@H](C2)[C@@H]1C(=O)Nc1cccc(S(=O)(=O)C(F)(F)F)c1` [Example 238], at human RXFP1, the “Test A Sinf” value is given as 102% and the EC50 amounted to 140 nM. The molecule further showed an intrinsic clearance (hepatocyte CLint) in data set [1] of 27 µL/min/1e6 cells. This molecule yielded a solubility in the data set “Solubility (Test F)” of 890 µM (≈ 592 µg/mL). The molecule also came in with a microsomal CLint in data set [2] of 42 µL/min/mg. Moreover, in data set [3], the hepatocyte CLint at 1 µM turned out to be 13 µL/min/1e6 cells.
For `COc1cc(F)c(O[C@H]2CC[C@@H](C(=O)O)CC2)cc1C(=O)N[C@@H]1[C@@H]2C[C@@H]([C@H]3OCO[C@@H]23)[C@@H]1C(=O)Nc1cccc(S(=O)(=O)C(F)(F)F)c1` [Example 461, (1S,4s)-4-(2-Fluoro-4-methoxy-5-(((3aS,4S,5R,6S,7R,7aR)-6-((3-((trifluoromethyl)sulfonyl)phenyl)carbamoyl)hexahydro-4,7-methanobenzo[d][1,3]dioxol-5-yl)carbamoyl)phenoxy)cyclohexane-1-carboxylic acid], on human RXFP1, the “Test A Sinf” value is 100% and the EC50 amounted to 190 nM. The hepatocyte CLint in data set [1] was 7.4 µL/min/1e6 cells. Besides, the concentration in solution in the data set “Solubility (Test F)” (solubility) was 980 µM (≈ 687 µg/mL). Further, the microsomal CLint in data set [2] was 7.5 µL/min/mg. Moreover, in data set [3], the hepatocyte CLint at 1 µM was found to be 2.9 µL/min/1e6 cells.
On to `COc1cc(F)c(O[C@H]2CC[C@@](C)(C(=O)O)CC2)cc1C(=O)N[C@@H]1CCC[C@@H]1C(=O)N[C@H](C)C(C)(C)C` [Example 65, (1S,4s)-4-(5-(((1R,2S)-2-(((R)-3,3-Dimethylbutan-2-yl)carbamoyl)cyclopentyl)carbamoyl)-2-fluoro-4-methoxyphenoxy)-1-methylcyclohexane-1-carboxylic acid], for which, on human RXFP1, the “Test A Sinf” value is recorded as 99% and the EC50 is 160 nM. Further, in data set [1], the hepatocyte CLint was 9.7 µL/min/1e6 cells. Also, in “Solubility (Test F)”, the solubility is > 1000 µM. In data set [2], this molecule came in with a microsomal CLint of 5.5 µL/min/mg. For the same molecule, the hepatocyte CLint at 1 µM in data set [3] was found to be 3.1 µL/min/1e6 cells.

The values are drawn from patent US11667602B2, “Compounds and their use” (AstraZeneca AB, priority 2020, dated 2023).
